Results taken from US20160045505A1, “COMPOUNDS AND COMPOSITIONS FOR THE TREATMENT OF PARASITIC DISEASES” (NOVARTIS AG, priority 2013, published 2016).
Read-outs that look alike come from different tables or passages of the source.

What was measured:
[1] = tested on: Trypanosoma cruzi amastigotes (Tulahuen strain expressing Lac-Z) cultured in 3T3 fibroblast cells; experiment: microbe, parasite or virus in culture; format: cell-based; settings: Trypanosoma cruzi, TULAHUEN, Fibroblast, T. cruzi amastigotes in 3T3 fibroblast cells, read-out: T cruzi EC50
[2] = tested on: Trypanosoma brucei Lister 427 strain, bloodstream form; experiment: Assay for proliferation of kinetoplastid parasite Trypanosoma brucei (Cell Titer Glo, 48 hours); format: cell-based; settings: Trypanosoma brucei, T. brucei Lister 427 bloodstream form, read-out: T. brucei EC50
How it was run: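 Bloodstream-form T. brucei Lister 427 in HMI-9 medium was exposed to compound (DMSO vehicle) for 48 hours at 37° C, 5% CO2. Parasite growth was read as ATP by CellTiter-Glo luminescence, with EC50 calculated from percent inhibition.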

[3] = tested on: Leishmania donovani axenic amastigote parasites; experiment: Leishmania donovani axenic amastigote proliferation assay (Cell TiterGlo luminescence, 2 day incubation); format: cell-based; settings: Leishmania donovani, read-out: L. donovani amastigotes EC50
[4] = tested on: L. donovani HU3 strain in mouse peritoneal macrophages; experiment: Assay for proliferation of Leishmania parasites in infected mouse peritoneal macrophages (SybrGreen staining, high-content imaging, 5 days); format: cell-based, Leishmania donovani; settings: Leishmania donovani, Peritoneal macrophage, L. donovani in mouse peritoneal macrophages, read-out: L. donovani Macrophage EC50
[5] = axenic amastigotes, inhibition of proliferation

Row | SMILES | EC50 ([1]; inhibition of proliferation) | EC50 ([2]; inhibition of proliferation) | EC50 [3, 5] | EC50 ([4]; inhibition of proliferation) | EC50 [1] | EC50 [2] | EC50 ([3]; L. donovani axenic amastigotes) | EC50 [4]
1 | Cc1nc(C)c(C(=O)Nc2ccc(F)c(-c3cn4cc(C5=CCCO5)cnc4n3)c2)o1 [Compound 371] | 465 nM | 1470 nM | 1650 nM | 2300 nM | – | – | – | –
2 | O=C(Nc1ccc(F)c(-c2cn3cc(C4CC4)cnc3n2)c1)N1CC(F)(F)C1 [Compound 604] | – | – | – | – | 46 nM | 51 nM | 22 nM | 41 nM
3 | CC(C)OC(=O)Nc1cnc2nc(-c3cc(NC(=O)c4cnc(C5CC5)o4)ccc3Cl)cn2c1 [Compound 60] | 444 nM | 1540 nM | 727 nM | 1100 nM | – | – | – | –
4 | CN(C)c1cnc2nc(-c3cc(NC(=O)N4CCC4)ccc3F)cn2c1 [Compound 469] | – | – | – | – | 146 nM | 55 nM | 143 nM | 230 nM
5 | Cc1ncc(C(=O)Nc2cccc(-c3cn4cc(NC(=O)OC(C)C)cnc4n3)c2)o1 [Compound 202] | > 20000 nM | 249 nM | 229 nM | 2720 nM | – | – | – | –
6 | Cc1nc(C)c(C(=O)Nc2ccc(F)c(-c3cn4cc(-c5ccc(OCCN6CCOCC6)cc5)cnc4n3)c2)o1 [Compound 359] | 405 nM | 1500 nM | 450 nM | 4860 nM | – | – | – | –
7 | Cc1nc(C)c(C(=O)Nc2ccc(F)c(-c3cn4cc(NC(=O)C5(C)CC(F)(F)C5)cnc4n3)c2)o1 [Compound 118] | 3380 nM | 442 nM | 606 nM | 2050 nM | – | – | – | –
8 | Cc1nc(C)c(C(=O)Nc2ccc(F)c(-c3cn4cc(-c5ncccc5F)cnc4n3)c2)o1 [Compound 449] | – | – | – | – | 22 nM | 56 nM | 28 nM | 54 nM
9 | Cc1nc(C)c(C(=O)Nc2ccc(F)c(-c3cn4cc(NCc5ncc[nH]5)cnc4n3)c2)o1 [Compound 479] | – | – | – | – | > 20000 nM | 41900 nM | > 22800 nM | > 50000 nM
10 | Cc1nc(C)c(C(=O)Nc2ccc(F)c(-c3cn4cc(-c5ccc(CCN6CCOCC6)cc5)cnc4n3)c2)o1 [Compound 348] | 41 nM | 165 nM | 341 nM | 1030 nM | – | – | – | –
11 | Cc1nc(C)c(C(=O)Nc2ccc(F)c(-c3cn4cc(-c5nccn5C)cnc4n3)c2)o1 [Compound 427] | – | – | – | – | 1330 nM | 163 nM | 237 nM | 438 nM
12 | Cc1nc(C)c(C(=O)Nc2ccc(F)c(-c3cn4cc(NCC(C)(C)C)cnc4n3)c2)o1 [Compound 465] | – | – | – | – | 146 nM | 153 nM | 329 nM | 289 nM
13 | CCC(C)OC(=O)Nc1cnc2nc(-c3cc(NC(=O)c4oc(C)nc4C)ccc3F)cn2c1 (stereo not shown) [Compound 309] | 275 nM | 132 nM | 109 nM | 204 nM | – | – | – | –
14 | Cc1nc(C)c(C(=O)Nc2ccc(F)c(-c3cn4cc(C(C)C)cnc4n3)c2)o1 [Compound 412] | – | – | – | – | 48 nM | 40 nM | 46 nM | 134 nM
15 | Cc1nc(C)c(C(=O)N(c2ccc(F)c(-c3cn4cc(OC(C)C)cnc4n3)c2)C(C)C)o1 [Compound 612] | – | – | – | – | 3810 nM | 12400 nM | 9400 nM | 1060 nM
16 | CC(C)OC(=O)Nc1cnc2nc(-c3cc(Nc4nccc5ccoc45)ccc3F)cn2c1 [Compound 497] | – | – | – | – | 112 nM | 496 nM | 641 nM | 1280 nM
17 | Cc1nc(C(=O)Nc2cnc3nc(-c4cc(NC(=O)c5oc(C)nc5C)ccc4F)cn3c2)c(C)o1 [Compound 162] | 127 nM | 52 nM | 65 nM | 540 nM | – | – | – | –

Row | SMILES | EC50 ([1]; inhibition of proliferation) | EC50 ([2]; inhibition of proliferation) | EC50 [3, 5] | EC50 ([4]; inhibition of proliferation) | EC50 [1] | EC50 [2] | EC50 ([3]; L. donovani axenic amastigotes) | EC50 [4]
18 | C=Cc1cnc2nc(-c3cc(NC(=O)c4oc(C)nc4C)ccc3F)cn2c1 [Compound 581, N-(4-fluoro-3-(6-vinylimidazo[1,2-a]pyrimidin-2-yl)phenyl)-2,4-dimethyloxazole-5-carboxamide] | – | – | – | – | 110 nM | 101 nM | 169 nM | 249 nM
19 | Cc1nc(C)c(C(=O)Nc2ccc(F)c(-c3cn4cc(NC(=O)OCC(C)C)cnc4n3)c2)o1 [Compound 308] | 329 nM | 131 nM | 211 nM | 338 nM | – | – | – | –
20 | CC(C)OC(=O)Nc1cnc2nc(-c3cc(NC(=O)c4cnco4)ccc3Cl)cn2c1 [Compound 52] | 1280 nM | 571 nM | 261 nM | 2740 nM | – | – | – | –
21 | O=C(Nc1ccc(F)c(-c2cn3cc(C4=CCOCC4)cnc3n2)c1)N1CC(F)(F)C1 [Compound 320] | 186 nM | 35 nM | 58 nM | 180 nM | – | – | – | –
22 | CCN(C)C(=O)Nc1ccc(F)c(-c2cn3cc(C4=CCOCC4)cnc3n2)c1 [Compound 328] | 302 nM | 167 nM | 387 nM | 1500 nM | – | – | – | –
23 | Cc1nc(C)c(C(=O)Nc2ccc(F)c(-c3cn4cc(N(C)C)cnc4n3)c2)o1 [Compound 470] | – | – | – | – | 148 nM | 159 nM | 252 nM | 689 nM
24 | CC(C)OC(=O)Nc1cnc2nc(-c3cc(NC(=O)c4ccc(S(C)(=O)=O)s4)ccc3F)cn2c1 [Compound 109] | > 20000 nM | > 50000 nM | > 25000 nM | 28200 nM | – | – | – | –
25 | O=C(Nc1cnc2nc(-c3cc(NC(=O)N4CCCC4)ccc3F)cn2c1)C1COCCO1 (stereo not shown) [Compound 143] | 7910 nM | 159 nM | 478 nM | 1400 nM | – | – | – | –
26 | CC(C)OC(=O)Nc1cnc2nc(-c3cc(NC(=O)N4CCNC4=O)ccc3Cl)cn2c1 [Compound 217] | 7060 nM | > 50000 nM | > 25000 nM | > 50000 nM | – | – | – | –
27 | COC(C)C(=O)Nc1cnc2nc(-c3cc(NC(=O)c4oc(C)nc4C)ccc3F)cn2c1 (stereo not shown) [Compound 177] | 3470 nM | 161 nM | 310 nM | 911 nM | – | – | – | –
28 | CC(C)OC(=O)Nc1cnc2nc(-c3cc(NC(=O)C(C)C)ccc3F)cn2c1 [Compound 105] | 1460 nM | 1480 nM | 2170 nM | > 50000 nM | – | – | – | –
29 | Cc1nc(C)c(C(=O)Nc2ccc(F)c(-c3cn4cc(-c5ccn(C)n5)cnc4n3)c2)o1 [Compound 363] | 45 nM | 58 nM | 77 nM | 136 nM | – | – | – | –
30 | Cc1nc(C)c(C(=O)Nc2ccc(F)c(-c3cn4cc(NC(=O)c5ccc(OCCN6CCN(C)CC6)cc5)cnc4n3)c2)o1 [Compound 175] | > 20000 nM | 4480 nM | > 25000 nM | 12600 nM | – | – | – | –
31 | CNc1cnc2nc(-c3cc(NC(=O)c4oc(C)nc4C)ccc3F)cn2c1 [Compound 212] | 1300 nM | 1010 nM | 1120 nM | 4150 nM | – | – | – | –
32 | CC(C)Nc1cnc2nc(-c3cc(NC(=O)N4CC(F)(F)C4)ccc3F)cn2c1 [Compound 460, 3,3-difluoro-N-(4-fluoro-3-(6-(isopropylamino)imidazo[1,2-a]pyrimidin-2-yl)phenyl)azetidine-1-carboxamide] | – | – | – | – | 182 nM | 164 nM | 241 nM | 208 nM
33 | Cc1nc(C)c(C(=O)Nc2ccc(F)c(-c3cn4cc(NC5=NC(C)CO5)cnc4n3)c2)o1 (stereo not shown) [Compound 524] | – | – | – | – | 12600 nM | 1000 nM | 3510 nM | 9540 nM
34 | CC(C)OC(=O)Nc1cnc2nc(-c3cc(NC(=O)c4nccs4)ccc3Cl)cn2c1 [Compound 243] | 150 nM | 369 nM | 780 nM | 2610 nM | – | – | – | –
